Here are results for one compound from publication PMC5806882, “Structural and biochemical characterization of the biuret hydrolase (BiuH) from the cyanuric acid catabolism pathway of Rhizobium leguminasorum bv. viciae 3841” (PLoS ONE, 2018).

This experiment addresses biuret hydrolase (BiuH) (Rhizobium johnstonii, UniProt Q1M7F4, C175S). The experiment in a line: X-ray crystal structure, […] Å. Type of experiment: binding.

Sequence of biuret hydrolase (BiuH) (Q1M7F4 whole entry C175S): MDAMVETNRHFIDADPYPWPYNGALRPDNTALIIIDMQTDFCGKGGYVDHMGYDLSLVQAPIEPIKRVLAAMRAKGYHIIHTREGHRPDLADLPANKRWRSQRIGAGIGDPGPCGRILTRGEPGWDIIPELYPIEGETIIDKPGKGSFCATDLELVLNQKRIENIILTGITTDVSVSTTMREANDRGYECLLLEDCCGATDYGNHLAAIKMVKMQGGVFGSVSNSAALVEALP

As to `NC(=O)NC(N)=O` [biuret], the “X-ray crystal structure, 2.22 Å” value is “A structure of the inactive Cys175Ser variant with biuret in the active site was obtained (PDB ID: 6AZQ)”.
